Source: patent publication US11583588B2, “Modular self assembly disassembly (SADA) technologies” (MEMORIAL SLOAN KETTERING CANCER CENTER, priority 2017, dated 2023)
Read-outs that look alike come from different tables or passages of the source.

Tests used:
[1] = Clearance of unbound injected Bn-DOTA in a tumor free mouse; assay type: in vivo; conditions: within four hours
Procedure: In a tumor free mouse, over 99% of unbound injected Bn-DOTA typically clears from the murine serum within four hours, with the vast majority of it being excreted in the urine within the first 30 minutes. In contrast, previous studies have shown that between 3 to 5% of directly labeled IgG will remain in the blood 48 hours after injection. (Azzopardi, N. et al. (2011) Clin Cancer Res 17, 6329-6337).

[2] = Blood and tumor activity after P53-BiDE(noHIS) and 177Lu-Bn-DOTA administration (FIG. 6A, 6D, 6E); assay type: in vivo, mice; conditions: 177Lu-Bn-DOTA only
Procedure: FIG. 6A to FIG. 6E depict pharmacokinetics of exemplary SADA-BiDE constructs in vivo. FIG. 6A depicts activity over time after P53-BiDE(noHIS) and Bn-DOTA administration. Each line represents one group, with three mice per group. Triangles denote a group that received P53-BiDE(noHIS) followed by clearing agent (CA) 72 hours later. Squares denote a group that received P53-BiDE(noHIS) without any clearing agent before ^177Lu-Bn-DOTA administration. Circles denote a group that only received ^177Lu-Bn-DOTA but not any SADA-BiDE. Dashed lines correspond to the measured blood activity, while solid lines correspond to the activity measured in the tumor. […] FIG. 6B depicts blood activity of radiolabeled 131I-SADA-BiDE in tumor-free mice. Activity measurements were normalized to the initial measurement for each group. Each line represents one group, with 4-5 mice per group. (+) symbols denote P53-BiDE, (X) symbols denote P63-BiDE and circles denote P73-BiDE. […]
Importantly, even though, as described in the previous examples, P53-BIDE(NOHIS), P53-BiDE, P63-BiDE and P73-BiDE is rapidly cleared from the serum, total tumor uptake of was not affected. With both 24 hours and 72 hours between P53-BIDE(NOHIS) and ^177Lu-Bn-DOTA injections, significant activity (˜15% ID/g) was measured at the tumor site (FIG. 6D) […]

[3] = 37° C., cited from earlier work

| Compound | unbound injected Bn-DOTA cleared from murine serum [1] | tumor activity, Bn-DOTA alone without SADA-BiDE [2] | Kd ([3]; read-out: dissociation constant (KD), tetramers dissociating into dimers) [nM] | Kd ([3]; read-out: dissociation constant of dimers into monomers) [nM] |
| --- | --- | --- | --- | --- |
| O=C(O)CN1CCN(CC(=O)O)CCN(CC(=O)O)C(Cc2ccccc2)CN(CC(=O)O)CC1 (stereo not shown) [Bn-DOTA, Benzyl-1,4,7,10-tetraazacyclododecane-1,4,7,10-tetraacetic acid, reference compound] | over 99% | no tumor activity was detected | – | – |
| Tetramerization domain of p53 (residues 321-359): Human p53 tetramerization domain (321-359), SADA domain; SEQ ID NO: 1 | – | – | 150 | 1 |
